Assays:
[1] = tested on: Rabbit Liver Esterase (RLE); assay: Enzymatic degradation of PS20 by RLE, PS20 by RP-ELSD; assay type: biochemical; settings: 15% w/v HP-β-CD; 0.02% PS20, pH 5.5; 15 μg/mL RLE, 5 hours, room temperature
Experimental: (§1) Polysorbate concentration was determined using reverse phase ultra-performance liquid chromatography using evaporative light scattering detection (RP-ELSD). Samples were analyzed using an Agilent 1100 series high performance liquid chromatography system (HPLC) fitted with a Waters Oasis MAX cartridge column (20×2.1 mm, 30 μm particle size). The HPLC system was set up with a switching valve directing column flow-through to either waste or a Varian 380-LC evaporative light scattering detector set to 100° C. The mobile phases consisted of 2% formic acid in water (Pump A) and 2% formic acid in isopropanol (Pump B). […] In order to quantitate the PS20 concentration, a standard curve was generated by injecting 20 μL of solutions containing between 0% w/v and 0.4% w/v PS20. For excipients which affected the migration time of PS20 through the column, PS20 standard curve solutions containing the relevant excipient were included in the analysis to facilitate accurate quantitation.
The effect of 15% HP-β-CD on the enzymatic degradation of PS20 was measured. […]
PPL digestion was stopped by heat inactivation in an 85° C. water bath for 30 minutes. LPL and RLE digestion could not be stopped by heat inactivation, so the samples were analyzed immediately for PS20 content. […]

CALB, RLE, and LPL = assay: PS20 loss and subvisible particles after digestion, summary across CALB, LPL and RLE; assay type: biochemical; settings: 15% (w/v) HP-β-CD vs 0%; ≥2, ≥5, ≥10, ≥25 micron; HIAC
Experimental: (§2) Subvisible particles were measured using a HIAC 9703 particle counter equipped with an HRDL-150 detector and a 1 mL syringe. Performance of the instrument was verified with NIST-traceable 2 μm Polystyrene bead standards at 3000 counts/mL before each measurement session. The HIAC instrument was configured to a 10 mL/min flow rate, 0.1 mL tare volume, and 0.4 mL sample volume. The samples were analyzed using 4 runs of 0.4 mL sips, with the first run of each sample was discarded to prevent measurement error due to sample carryover. Results were reported as the average values for 1.4, 2, 5, 10, 15, and 25, 50 μm analysis filter sizes.
as §1, with “size).” for “size). The HPLC system was set up with a switching valve directing column flow-through to either waste or a Varian 380-LC evaporative light scattering detector set to 100° C. The mobile phases consisted of 2% formic acid in water (Pump A) and 2% formic acid in isopropanol (Pump B).”, “quantitation. […]” for “quantitation.”

[2] = molecular target: T1, porcine pancreatic lipase (PPL) (Sus scrofa, UniProt P00591); assay: Enzymatic degradation of PS80 by PPL (RP-ELSD, HIAC); assay type: biochemical
T1 construct: purchased Sigma Aldrich Inc. (St. Louis, Mo.)
T1 sequence (P00591 1-450): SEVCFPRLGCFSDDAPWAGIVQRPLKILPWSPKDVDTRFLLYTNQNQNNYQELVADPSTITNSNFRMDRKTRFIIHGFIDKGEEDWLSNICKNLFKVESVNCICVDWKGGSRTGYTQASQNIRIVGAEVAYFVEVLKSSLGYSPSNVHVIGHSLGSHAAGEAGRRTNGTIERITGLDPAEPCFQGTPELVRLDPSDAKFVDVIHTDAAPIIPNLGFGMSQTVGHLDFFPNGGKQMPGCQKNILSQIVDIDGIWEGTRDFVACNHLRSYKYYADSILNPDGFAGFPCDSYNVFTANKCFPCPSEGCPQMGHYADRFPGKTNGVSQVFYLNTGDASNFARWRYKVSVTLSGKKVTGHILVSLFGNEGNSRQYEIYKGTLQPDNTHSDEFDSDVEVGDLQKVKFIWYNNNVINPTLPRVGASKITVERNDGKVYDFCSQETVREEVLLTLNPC
Experimental: as §2
as §1, with “size).” for “size). The HPLC system was set up with a switching valve directing column flow-through to either waste or a Varian 380-LC evaporative light scattering detector set to 100° C. The mobile phases consisted of 2% formic acid in water (Pump A) and 2% formic acid in isopropanol (Pump B).”, “quantitation. […]” for “quantitation.”

PPL enzyme = molecular target: T2, PPL enzyme (Sus scrofa, UniProt P00591); assay: PPL degradation of PS20 in mAb, BsAb and sFAb samples, PS20 by RP-ELSD; assay type: biochemical, porcine; settings: 5% and 15% HPβCD, BsAb, sFAb 20 mg/mL and control, 0.02% PS20, 20 mM histidine acetate pH 5.5, 15 μg/mL PPL 4.5 hours
T2 construct: purchased Sigma Aldrich Inc. (St. Louis, Mo.)
T2 sequence (P00591 1-450): T1 sequence (P00591 1-450)
Experimental: as §1
The impact of various protein molecule classes (e.g., monoclonal antibody (mAb), single-Fab antibody (sFAb), and bispecific antibody(BsAb)) was assessed on the ability of cyclodextrins to decrease enzymatic PS20 degradation. […] Each sample was analyzed for PS20 concentration using high performance liquid chromatography with an inline evaporative light scattering detector. […]

Substance: 2-hydroxypropyl-β-cyclodextrin [HP-β-CD]
- Polysorbate 20 (Relative %) [1]: 62.7%
- subvisible particulates (SVP/mL) after enzymatic degradation (CALB, RLE, and LPL): fewer SVP/mL
- subvisible particulates (SVP/mL) after PPL degradation of PS80 ([2]; 15% (w/v) HP-β-CD vs 0%, ≥1.4 to ≥25 micron, HIAC): fewer SVP/mL
- decrease in PS80 ([2]; 15% (w/v) HP-β-CD, 0.02% (w/v) PS80, pH 5.5, 15 μg/mL PPL, 5 hours, room temperature): approximately 4%
- mitigation of catalytic PS20 degradation across molecular formats (in words) (PPL enzyme): equally effective at mitigating catalytic PS20 degradation

Reference: patent publication US10933141B2, “Formulations with reduced degradation of polysorbate” (Genentech, Inc., priority 2015, dated 2021)
